Measurements published in US8968750B2, “Malaria vaccines based on apicomplexan ferlins, ferlin-like proteins and other C2-domain containing proteins” (Ruprecht-Karls-Universität Heidelberg, priority 2009, dated 2015).

Tested on: peripheral blood mononuclear cells (PBMC)
Assay: cultured IFNγ ELISpot over 10 days with PBMCs stimulated with Pf Ferlin epitopes
Format: cell-based, human
Protocol: Each epitope was tested both individually and in pools of epitopes, which is summarised in this figure. Freshly isolated PBMCs from the blood of malaria-exposed and non-exposed (naïve) individuals were stimulated with the Pf Ferlin epitopes. The secretion of IFNγ was analysed by ELISpot. Pf AMA1, a known malarial blood stage antigen, was used as a positive control (FIG. 12B).
In order to investigate the presence of Pf Ferlin-specific T cells in malaria-exposed individuals, T-cell responses to Pf Ferlin peptides (NLLDPLVVV (SEQ ID NO:4), YLYVNIHKI (SEQ ID NO:5), LLLEGNFYL (SEQ ID NO:6), KLIPVNYEL (SEQ ID NO:7), YLYEKQQEL (SEQ ID NO:8), ILIPSLPLI (SEQ ID NO:9)) were tested in semi-immune Kenyan adults in collaboration with Dr. Britta urban at the Kenyan Medical Research Institute-Wellcome Trust Research Programme (KEMRI). All adults are resident in Junju District, about 60 km north of Mombasa at the Kenyan coast. The area has two high transmission seasons but low-level transmission occurs all year round (infectious bites per year:23-53) (Mwangi et al., 2005).
In order to determine the production of antigen-specific IFNγ by activated peripheral blood mononuclear cells (PBMC), cultured ELISpot analysis was carried out over a period of 10 days in malaria-exposed adults and malaria-naïve individuals. […] Furthermore, when studying the production of antigen-specific IFN-γ by activated peripheral blood mononuclear cells (PBMC) in 12 malaria-exposed adults and 5 malaria-naive individuals, Pf Ferlin-specific T cells were detected to at least one peptide in 4 out of 12 and to more than one peptide in 3 out of 12 malaria-exposed adults (Table 2).

Row | Sequence | INFγ response to individual peptide (responder) (Patient Ad) | INFγ response to individual peptide (responder) (Patient Fr) | INFγ response to individual peptide (responder) (Patient JA029) | INFγ response to individual peptide (responder) (Patient JA030) | INFγ response to individual peptide (responder) (Patient JA046) | INFγ response to individual peptide (responder) (Patient JA047) | INFγ response to individual peptide (responder) (Patient JA066) | INFγ response to individual peptide (responder) (Patient JA067) | INFγ response to individual peptide (responder) (Patient JA086) | INFγ response to individual peptide (responder) (Patient JA006) | INFγ response to individual peptide (responder) (Patient JA007) | INFγ response to individual peptide (responder) (Patient JA087)
1 | ILIPSLPLI (listed as Plasmodium falciparum) [Epitope 6] | no (An INFγ response above SFC 500 identified the patient as a responder.) | no (An INFγ response above SFC 500 identified the patient as a responder.) | no (An INFγ response above SFC 500 identified the patient as a responder.) | yes (An INFγ response above SFC 500 identified the patient as a responder.) | no (An INFγ response above SFC 500 identified the patient as a responder.) | no (An INFγ response above SFC 500 identified the patient as a responder.) | no (An INFγ response above SFC 500 identified the patient as a responder.) | no (An INFγ response above SFC 500 identified the patient as a responder.) | no (An INFγ response above SFC 500 identified the patient as a responder.) |  |  | 
2 | KLIPVNYEL (listed as Plasmodium falciparum) [Epitope 4] | no (An INFγ response above SFC 500 identified the patient as a responder.) | no (An INFγ response above SFC 500 identified the patient as a responder.) | no (An INFγ response above SFC 500 identified the patient as a responder.) | yes (An INFγ response above SFC 500 identified the patient as a responder.) | no (An INFγ response above SFC 500 identified the patient as a responder.) | no (An INFγ response above SFC 500 identified the patient as a responder.) | no (An INFγ response above SFC 500 identified the patient as a responder.) | no (An INFγ response above SFC 500 identified the patient as a responder.) | yes (An INFγ response above SFC 500 identified the patient as a responder.) | no (An INFγ response above SFC 500 identified the patient as a responder.) | no (An INFγ response above SFC 500 identified the patient as a responder.) | 
3 | LLLEGNFYL (listed as Plasmodium falciparum) [Epitope 3] | no (An INFγ response above SFC 500 identified the patient as a responder.) | no (An INFγ response above SFC 500 identified the patient as a responder.) | yes (An INFγ response above SFC 500 identified the patient as a responder.) | no (An INFγ response above SFC 500 identified the patient as a responder.) | no (An INFγ response above SFC 500 identified the patient as a responder.) | no (An INFγ response above SFC 500 identified the patient as a responder.) | no (An INFγ response above SFC 500 identified the patient as a responder.) | no (An INFγ response above SFC 500 identified the patient as a responder.) | yes (An INFγ response above SFC 500 identified the patient as a responder.) | no (An INFγ response above SFC 500 identified the patient as a responder.) |  | 
4 | NLLDPLVVV (listed as Plasmodium falciparum) [Epitope 1] | yes (An INFγ response above SFC 500 identified the patient as a responder.) | no (An INFγ response above SFC 500 identified the patient as a responder.) | yes (An INFγ response above SFC 500 identified the patient as a responder.) | no (An INFγ response above SFC 500 identified the patient as a responder.) | no (An INFγ response above SFC 500 identified the patient as a responder.) | no (An INFγ response above SFC 500 identified the patient as a responder.) | no (An INFγ response above SFC 500 identified the patient as a responder.) | no (An INFγ response above SFC 500 identified the patient as a responder.) | no (An INFγ response above SFC 500 identified the patient as a responder.) | no (An INFγ response above SFC 500 identified the patient as a responder.) | no (An INFγ response above SFC 500 identified the patient as a responder.) | no (An INFγ response above SFC 500 identified the patient as a responder.)
5 | YLYEKQQEL (listed as Plasmodium falciparum) [Epitope 5] | no (An INFγ response above SFC 500 identified the patient as a responder.) | no (An INFγ response above SFC 500 identified the patient as a responder.) | no (An INFγ response above SFC 500 identified the patient as a responder.) | yes (An INFγ response above SFC 500 identified the patient as a responder.) | no (An INFγ response above SFC 500 identified the patient as a responder.) | no (An INFγ response above SFC 500 identified the patient as a responder.) |  |  | no (An INFγ response above SFC 500 identified the patient as a responder.) | no (An INFγ response above SFC 500 identified the patient as a responder.) |  | 
6 | YLYVNIHKI (listed as Plasmodium falciparum) [Epitope 2] | no (An INFγ response above SFC 500 identified the patient as a responder.) | no (An INFγ response above SFC 500 identified the patient as a responder.) | yes (An INFγ response above SFC 500 identified the patient as a responder.) | no (An INFγ response above SFC 500 identified the patient as a responder.) | no (An INFγ response above SFC 500 identified the patient as a responder.) | no (An INFγ response above SFC 500 identified the patient as a responder.) | no (An INFγ response above SFC 500 identified the patient as a responder.) | no (An INFγ response above SFC 500 identified the patient as a responder.) | no (An INFγ response above SFC 500 identified the patient as a responder.) | no (An INFγ response above SFC 500 identified the patient as a responder.) |  | 
